In brackets after ≈: the same amount, converted by molar mass.
Experiments:
Assay type in all cases: functional
Staphylococcus aureus [1] = experiment: Antibacterial activity against Staphylococcus aureus ATCC 101 29213
Staphylococcus aureus [2] = experiment: Antibacterial activity against tetracycline- and methicillin-resistant Staphylococcus aureus 161
Staphylococcus aureus [3] = experiment: microbe, parasite or virus in culture; settings: 158
Enterococcus faecalis [4] = experiment: Antibacterial activity against Enterococcus faecalis ATCC 103 29212
Enterococcus faecalis [5] = experiment: Antibacterial activity against tetracycline-resistant Enterococcus faecalis 159
Streptococcus pneumoniae [6] = experiment: microbe, parasite or virus in culture; settings: ATCC 106 49619
Description: Antibacterial activity against Streptococcus pneumoniae ATCC 106 49619

Streptococcus pneumoniae [7] = experiment: Antibacterial activity against tetracycline-resistant Streptococcus pneumoniae 160
Escherichia coli [8] = experiment: Antibacterial activity against Escherichia coli ATCC 107 25922
Escherichia coli [9] = experiment: Antibacterial activity against tetracycline-resistant Escherichia coli 155
Acinetobacter baumannii = experiment: Antibacterial activity against Acinetobacter baumannii ATCC 19606 110
Pseudomonas aeruginosa = experiment: Antibacterial activity against Pseudomonas aeruginosa ATCC 111 27853
Enterobacter cloacae = experiment: Antibacterial activity against Enterobacter cloacae ATCC 108 13047
Klebsiella pneumoniae [10] = experiment: Antibacterial activity against Klebsiella pneumoniae ATCC 109 13883
Klebsiella pneumoniae [11] = experiment: Antibacterial activity against tetracycline-resistant Klebsiella pneumoniae 153

SMILES	MIC (Staphylococcus aureus [1])	MIC (Staphylococcus aureus [2])	MIC (Staphylococcus aureus [3])	MIC (Enterococcus faecalis [4])	MIC (Enterococcus faecalis [5])	MIC (Streptococcus pneumoniae [6])	MIC (Streptococcus pneumoniae [7])	MIC (Escherichia coli [8])	MIC (Escherichia coli [9])	MIC (Acinetobacter baumannii)	MIC (Pseudomonas aeruginosa)	MIC (Enterobacter cloacae)	MIC (Klebsiella pneumoniae [10])	MIC (Klebsiella pneumoniae [11])
CN(C)CC(=O)Nc1cc(F)c2c(c1O)C(=O)C1=C(O)[C@]3(O)C(=O)C(C(N)=O)=C(O)[C@@H](N(C)C)[C@@H]3C[C@@H]1C2	0.0156 µg/mL (≈ 0.0293 µM)	0.125 µg/mL (≈ 0.235 µM)	0.25 µg/mL (≈ 0.469 µM)	0.0156 µg/mL (≈ 0.0293 µM)	0.0312 µg/mL (≈ 0.0586 µM)	0.0156 µg/mL (≈ 0.0293 µM)	0.0156 µg/mL (≈ 0.0293 µM)	0.125 µg/mL (≈ 0.235 µM)	8 µg/mL (≈ 15 µM)	0.125 µg/mL (≈ 0.235 µM)	8 µg/mL (≈ 15 µM)	1 µg/mL (≈ 1.88 µM)	0.5 µg/mL (≈ 0.939 µM)	8 µg/mL (≈ 15 µM)
COCCNCC(=O)Nc1cc(F)c2c(c1O)C(=O)C1=C(O)[C@]3(O)C(=O)C(C(N)=O)=C(O)[C@@H](N(C)C)[C@@H]3C[C@@H]1C2	0.25 µg/mL (≈ 0.444 µM)	0.5 µg/mL (≈ 0.889 µM)	4 µg/mL (≈ 7.11 µM)	0.125 µg/mL (≈ 0.222 µM)	1 µg/mL (≈ 1.78 µM)	0.0156 µg/mL (≈ 0.0277 µM)	0.0625 µg/mL (≈ 0.111 µM)	1 µg/mL (≈ 1.78 µM)	16 µg/mL (≈ 28.4 µM)	2 µg/mL (≈ 3.56 µM)	16 µg/mL (≈ 28.4 µM)	4 µg/mL (≈ 7.11 µM)	2 µg/mL (≈ 3.56 µM)	8 µg/mL (≈ 14.2 µM)
CN(C)[C@@H]1C(O)=C(C(N)=O)C(=O)[C@@]2(O)C(O)=C3C(=O)c4c(O)c(NC(=O)CNc5ccccc5)cc(F)c4C[C@H]3C[C@@H]12	2 µg/mL (≈ 3.44 µM)	4 µg/mL (≈ 6.89 µM)	2 µg/mL (≈ 3.44 µM)	2 µg/mL (≈ 3.44 µM)	2 µg/mL (≈ 3.44 µM)	2 µg/mL (≈ 3.44 µM)	> 4 µg/mL	> 32 µg/mL	> 32 µg/mL	> 8 µg/mL	> 32 µg/mL	> 32 µg/mL	> 32 µg/mL	> 32 µg/mL
CCNCC(=O)Nc1cc(F)c2c(c1O)C(=O)C1=C(O)[C@]3(O)C(=O)C(C(N)=O)=C(O)[C@@H](N(C)C)[C@@H]3C[C@@H]1C2	0.0625 µg/mL (≈ 0.117 µM)	0.25 µg/mL (≈ 0.469 µM)	1 µg/mL (≈ 1.88 µM)	0.0625 µg/mL (≈ 0.117 µM)	0.125 µg/mL (≈ 0.235 µM)	0.0156 µg/mL (≈ 0.0293 µM)	0.0156 µg/mL (≈ 0.0293 µM)	0.25 µg/mL (≈ 0.469 µM)	16 µg/mL (≈ 30 µM)	2 µg/mL (≈ 3.76 µM)	8 µg/mL (≈ 15 µM)	0.5 µg/mL (≈ 0.939 µM)	1 µg/mL (≈ 1.88 µM)	8 µg/mL (≈ 15 µM)
COC[C@@H]1CCCN1CC(=O)Nc1cc(F)c2c(c1O)C(=O)C1=C(O)[C@]3(O)C(=O)C(C(N)=O)=C(O)[C@@H](N(C)C)[C@@H]3C[C@@H]1C2	1 µg/mL (≈ 1.66 µM)	2 µg/mL (≈ 3.32 µM)	1 µg/mL (≈ 1.66 µM)	1 µg/mL (≈ 1.66 µM)	2 µg/mL (≈ 3.32 µM)	0.125 µg/mL (≈ 0.207 µM)	0.125 µg/mL (≈ 0.207 µM)	4 µg/mL (≈ 6.64 µM)	16 µg/mL (≈ 26.6 µM)	0.5 µg/mL (≈ 0.83 µM)	> 32 µg/mL	16 µg/mL (≈ 26.6 µM)	8 µg/mL (≈ 13.3 µM)	16 µg/mL (≈ 26.6 µM)
CN(C)[C@@H]1C(O)=C(C(N)=O)C(=O)[C@@]2(O)C(O)=C3C(=O)c4c(O)c(NC(=O)CN5CC[C@@H](F)C5)cc(F)c4C[C@H]3C[C@@H]12	0.25 µg/mL (≈ 0.434 µM)	0.5 µg/mL (≈ 0.867 µM)	0.5 µg/mL (≈ 0.867 µM)	0.125 µg/mL (≈ 0.217 µM)	0.25 µg/mL (≈ 0.434 µM)	0.0156 µg/mL (≈ 0.0271 µM)	0.0156 µg/mL (≈ 0.0271 µM)	1 µg/mL (≈ 1.73 µM)	16 µg/mL (≈ 27.8 µM)	0.25 µg/mL (≈ 0.434 µM)	> 32 µg/mL	8 µg/mL (≈ 13.9 µM)	4 µg/mL (≈ 6.94 µM)	8 µg/mL (≈ 13.9 µM)
CN(C)[C@@H]1C(O)=C(C(N)=O)C(=O)[C@@]2(O)C(O)=C3C(=O)c4c(O)c(NC(=O)CN5CCCCC5)cc(F)c4C[C@H]3C[C@@H]12	0.5 µg/mL (≈ 0.873 µM)	1 µg/mL (≈ 1.75 µM)	0.5 µg/mL (≈ 0.873 µM)	0.25 µg/mL (≈ 0.437 µM)	0.5 µg/mL (≈ 0.873 µM)	0.0156 µg/mL (≈ 0.0272 µM)	0.0156 µg/mL (≈ 0.0272 µM)	1 µg/mL (≈ 1.75 µM)	4 µg/mL (≈ 6.99 µM)	0.125 µg/mL (≈ 0.218 µM)	32 µg/mL (≈ 55.9 µM)	4 µg/mL (≈ 6.99 µM)	2 µg/mL (≈ 3.49 µM)	4 µg/mL (≈ 6.99 µM)
CN(C)[C@@H]1CCN(CC(=O)Nc2cc(F)c3c(c2O)C(=O)C2=C(O)[C@]4(O)C(=O)C(C(N)=O)=C(O)[C@@H](N(C)C)[C@@H]4C[C@@H]2C3)C1	8 µg/mL (≈ 13.3 µM)	> 32 µg/mL	> 32 µg/mL	16 µg/mL (≈ 26.6 µM)	16 µg/mL (≈ 26.6 µM)	2 µg/mL (≈ 3.32 µM)	4 µg/mL (≈ 6.65 µM)	> 32 µg/mL	> 32 µg/mL	> 32 µg/mL	> 32 µg/mL	> 32 µg/mL	> 32 µg/mL	> 32 µg/mL
CN(C)[C@@H]1C(O)=C(C(N)=O)C(=O)[C@@]2(O)C(O)=C3C(=O)c4c(O)c(NC(=O)CNC(C)(C)C)cc(F)c4C[C@H]3C[C@@H]12	0.125 µg/mL (≈ 0.223 µM)	0.25 µg/mL (≈ 0.446 µM)	0.0625 µg/mL (≈ 0.111 µM)	0.0625 µg/mL (≈ 0.111 µM)	0.125 µg/mL (≈ 0.223 µM)	0.0156 µg/mL (≈ 0.0278 µM)	0.0156 µg/mL (≈ 0.0278 µM)	0.25 µg/mL (≈ 0.446 µM)	2 µg/mL (≈ 3.57 µM)	0.5 µg/mL (≈ 0.892 µM)	16 µg/mL (≈ 28.5 µM)	1 µg/mL (≈ 1.78 µM)	1 µg/mL (≈ 1.78 µM)	2 µg/mL (≈ 3.57 µM)

From ChEMBL document CHEMBL1949621, “Fluorocyclines. 1. 7-fluoro-9-pyrrolidinoacetamido-6-demethyl-6-deoxytetracycline: a potent, broad spectrum antibacterial agent” (J Med Chem, 2012)
